Assay results reported in BindingDB's records for doi:10.1016/j.ejmech.2012.08.033 (2012).

What follows are compounds tested against Casein kinase I isoform alpha (Homo sapiens, UniProt P48729) (assay: Inhibition of CK1 after 30 mins by liquid scintillation counter).
Chain of Casein kinase I isoform alpha (P48729 whole entry, canonical isoform): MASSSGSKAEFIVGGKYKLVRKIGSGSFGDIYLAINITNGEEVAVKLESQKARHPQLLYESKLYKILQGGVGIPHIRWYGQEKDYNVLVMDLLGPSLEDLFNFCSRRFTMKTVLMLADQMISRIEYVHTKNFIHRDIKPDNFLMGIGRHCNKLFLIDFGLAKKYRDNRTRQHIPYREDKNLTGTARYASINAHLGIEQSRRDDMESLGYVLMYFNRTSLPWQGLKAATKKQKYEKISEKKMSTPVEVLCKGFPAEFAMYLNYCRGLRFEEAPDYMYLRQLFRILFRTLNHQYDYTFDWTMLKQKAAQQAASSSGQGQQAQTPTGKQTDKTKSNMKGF

IC50 [nM] | SMILES
660 | CC(C)n1cnc2c(NCc3ccc(-c4ccccn4)cc3)nc(NCC[C@H](O)CO)nc21
390 | CC(C)n1cnc2c(NCc3ccc(-c4ccccn4)cc3)nc(N3C[C@H](O)C[C@H]3CO)nc21
150 | CC(C)[C@H](N)C(=O)OC[C@H](O)CNc1nc(NCc2ccc(-c3ccccn3)cc2)c2ncn(C(C)C)c2n1
180 | CC(C)n1cnc2c(NCc3ccc(-c4ccccn4)cc3)nc(NC[C@@H](O)CO)nc21
